Results on 6 molecules are retold here after patent publication US20240279232A1, “USE OF SUBSTITUTED 5-(4-METHYL-6-PHENYL-4H-BENZO[F]IMIDAZO[1,5-A][1,4] DIAZEPIN-3-YL)-1,2,4-O[…] THE TREATMENT OF INFLAMMATORY CONDITIONS” (priority 2021, published 2024).

The Ki is the equilibrium dissociation constant of an inhibitor or competing ligand from its target. The EC50 is the concentration that produces a half-maximal response. What is called inhibition is how much of the control response was suppressed.

Data set [1] concerns GABAAR on immortalized human microglia. As to the kind of experiment: Automated patch clamp, immortalized human microglia. In kind it is cell-based. The settings on record: 1 mM GABA, human cells. On the technique in general: In patch-clamp work, channel activity is measured electrically.
The test system of data set [2] is Mouse microglia. Briefly: NO production (Griess assay), LPS/IFNγ-activated mouse microglia. Format: cell-based. (In general: Nitrite, measured by Griess reagent, commonly stands in for NO production.)
The test system of data set [3] is GABAAR on immortalized mouse microglia. As to the kind of experiment: Automated patch clamp, immortalized mouse microglia. In kind it is cell-based. Particulars: 1 mM GABA, mouse cells.
The next data set has as its target T1, KOR (κ opioid receptor) (Homo sapiens, UniProt P41145).
T1 construct: expressed in transfected cells; host or cells: HEK293 (stably transfected)
As to the kind of experiment: KOR radioligand binding ([3H]-U69593, HEK293 cell homogenates). The settings on record: [3H]-U69593.

In the next data set the target is T2, DOR (δ opioid receptor) (Homo sapiens, UniProt P41143).
T2 construct: expressed in transfected cells; host or cells: HEK293
T2 sequence (P41143 whole entry): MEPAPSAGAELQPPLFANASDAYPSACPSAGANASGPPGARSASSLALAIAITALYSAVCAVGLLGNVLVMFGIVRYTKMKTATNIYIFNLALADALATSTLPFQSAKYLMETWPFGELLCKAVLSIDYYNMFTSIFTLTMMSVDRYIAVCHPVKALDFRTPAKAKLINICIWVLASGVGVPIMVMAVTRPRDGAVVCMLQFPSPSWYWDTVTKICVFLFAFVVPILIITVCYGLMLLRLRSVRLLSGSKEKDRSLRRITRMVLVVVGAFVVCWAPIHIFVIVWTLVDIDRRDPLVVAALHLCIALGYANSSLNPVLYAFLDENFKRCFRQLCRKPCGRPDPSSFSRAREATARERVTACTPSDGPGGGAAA
Briefly: DOR radioligand binding ([3H]-DADLE, HEK293 cell homogenates). The settings on record: Percent inhibition at 10,000 nM; [3H]-DADLE.

The next data set addresses T3, MOR (μ opioid receptor) (Homo sapiens, UniProt P35372).
T3 construct: expressed in transfected cells; host or cells: HEK293
Briefly: MOR radioligand binding ([3H]-DAMGO, HEK293 cell homogenates). The settings on record: [3H]-DAMGO.

The target in another data set is T4, human KOR (Homo sapiens, UniProt P41145).
T4 construct: expressed in transfected cells; host or cells: HEK293T
T4 sequence (P41145 whole entry): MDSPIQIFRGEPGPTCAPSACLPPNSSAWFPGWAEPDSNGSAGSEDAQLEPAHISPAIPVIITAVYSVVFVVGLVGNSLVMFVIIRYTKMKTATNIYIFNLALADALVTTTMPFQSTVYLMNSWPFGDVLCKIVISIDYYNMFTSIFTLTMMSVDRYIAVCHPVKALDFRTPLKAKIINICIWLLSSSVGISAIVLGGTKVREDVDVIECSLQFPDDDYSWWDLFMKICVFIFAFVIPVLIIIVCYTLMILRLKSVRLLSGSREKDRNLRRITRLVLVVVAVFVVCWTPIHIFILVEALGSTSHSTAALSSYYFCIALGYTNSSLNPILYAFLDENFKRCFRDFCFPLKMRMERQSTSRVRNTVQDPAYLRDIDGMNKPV
T4 sequence (P09471 2-354 partner limits assumed): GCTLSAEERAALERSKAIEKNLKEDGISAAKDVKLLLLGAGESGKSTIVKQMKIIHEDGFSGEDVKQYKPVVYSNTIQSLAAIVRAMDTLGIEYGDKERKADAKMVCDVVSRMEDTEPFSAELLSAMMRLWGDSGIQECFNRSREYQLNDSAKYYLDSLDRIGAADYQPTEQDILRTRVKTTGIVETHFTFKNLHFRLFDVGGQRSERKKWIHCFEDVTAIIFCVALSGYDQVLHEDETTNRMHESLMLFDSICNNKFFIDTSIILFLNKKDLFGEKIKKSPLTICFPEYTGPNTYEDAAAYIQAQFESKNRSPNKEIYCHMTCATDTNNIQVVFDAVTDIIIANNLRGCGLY
T4 sequence (P16520 whole entry partner): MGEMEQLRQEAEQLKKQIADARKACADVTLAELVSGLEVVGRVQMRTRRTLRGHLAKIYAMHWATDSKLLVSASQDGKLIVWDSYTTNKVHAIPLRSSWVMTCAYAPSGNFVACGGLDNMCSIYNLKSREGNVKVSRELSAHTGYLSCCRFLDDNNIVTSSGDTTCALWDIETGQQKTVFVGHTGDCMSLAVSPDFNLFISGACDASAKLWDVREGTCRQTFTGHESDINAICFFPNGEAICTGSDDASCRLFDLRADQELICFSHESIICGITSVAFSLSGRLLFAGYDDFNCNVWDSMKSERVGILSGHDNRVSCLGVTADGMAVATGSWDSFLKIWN
T4 sequence (Q9UK08 1-67 partner limits assumed): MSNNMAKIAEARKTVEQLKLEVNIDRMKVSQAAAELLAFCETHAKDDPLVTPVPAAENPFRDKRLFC
Briefly: BRET recruitment assay (GαoA) in HEK293T cells. Format: cell-based. The settings on record: for KOR agonism (in words): BRET recruitment assay. As for the experimental part:
HEK293 cells were transfected with GαoA-RLuc, Gβ3, Gγ8-GFP2 and human KOR and treated with increasing concentrations of GL-I-30 or full agonist salvinorin A.
The BRET recruitment assays were performed in HEK293T cells according to previously reported procedures with minor modifications. Briefly, the cells were co-transfected overnight with GαoA-RLuc, Gβ3, Gγ8-GFP2 and human KOR receptor at a 1:1:1:1 ratio. The next day, cells were seeded (˜40,000 cells/well) into poly-L-Lysine coated 96-well white clear bottom cell culture plates in DMEM containing 1% dialyzed FBS. 24 hours later, the 96-well plates bottom were covered with white backing (PerkinElmer) and the culture medium was removed. Immediately, the cells were washed with 80 μL/well of assay buffer (1× HBSS, 20 mM HEPES, 1 mg/ml BSA, pH 7.4). Then the cells were treated with 80 μL of drugs in assay buffer for 10 min at room temperature, follow by addition of 20 μL/well of RLuc substrate and incubated for another 10 min. Plates were read in a Mithras LB940 reader for the RLuc Luminescence (400 nm) and GFP2 (515 nm) emission and the ratio of GFP2/RLuc (n=24) was analyzed by non-linear regression using GraphPad Prism 8.
(BRET reads energy transfer from a luciferase to a nearby fluorophore.)

In data set [4] the test system is BZR (benzodiazepine site of GABAAR). Briefly: GABAAR/BZR binding, rat brain homogenate with 3H-flunitrazepam. The settings on record: rat brain homogenate, 3H-flunitrazepam. The essentials:
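Primary screen at 10,000 nM; where displacement exceeded 50%, Ki came from nonlinear regression of concentration–response data (n=6). Radioligand was 3H-flunitrazepam at roughly Kd on rat brain homogenate, usually 90 min, room temperature, dark, with 10 μM reference compound for nonspecific binding, then filtration and scintillation counting.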

Data set [5] deals with RAW macrophages. As to the kind of experiment: Cell viability (CellTiter-Glo), RAW macrophages. Format: cell-based, mouse. The settings on record: CellTiter-Glo.
For the next data set, the system named is HEPG2. As to the kind of experiment: Viability assay (CellTiter-Glo), HEPG2. In kind it is cell-based, human. The settings on record: 120 μM, CellTiter-Glo.
The test system of data set [6] is Mouse microglia. Briefly: Cell viability (CellTiter-Glo), mouse microglia. Format: cell-based. Particulars: 50 μM, CellTiter-Glo. The gist of the method: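 Mouse microglia (1×10^6 cells/mL) activated with 50 ng/ml LPS plus 150 U/mL IFNγ, incubated with compounds ~24 h at 37° C. Viability of remaining cells read by CellTiter-Glo luminescence after supernatant removal for Griess NO assay; […].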

Data set [7] has as its system RAW macrophages. As to the kind of experiment: NO production (Griess assay), LPS/IFNγ-activated RAW264.7 macrophages. Format: cell-based, mouse.
The test system of the next data set is HEK293. Briefly: Viability assay (CellTiter-Glo), HEK293. The settings on record: 120 μM, CellTiter-Glo. In kind it is cell-based, human.
Data set [8] has as its system Swiss Webster mice. As to the kind of experiment: Rotarod test. The settings on record: 5 mg/kg.
For data set [9], the system named is Swiss Webster mice. Briefly: Formalin test. In kind it is in vivo, mouse. The settings on record: orally; GL-IV-03 10 mg/kg; ketoprofen 30 mg/kg. As for the experimental part:
Webster mice were treated orally four days in advance with indicated compounds and doses before the injection of 2% formalin in the right hind paw. Mice were evaluated during the first 5 min (phase 1) and after 20 minutes (phase 2) for 5 minutes in 5 seconds intervals Licking and biting the right hind paw during a 5 second interval was noted and combined as total time addressing the injected paw. Data is given as mean with SEM (n =8). ** indicate p<0.01 (unpaired t-test).
The antinociceptive effect of GL-IV-03 was investigated with the formalin test. Paw injections of formalin elicited a biphasic pain response separated in time (1-5 minutes and 20-60 minutes). […] Sensorimotor impairment and sedation were investigated with mice that were trained to balance on a rotating rod over a period of three minutes (rotarod). The amount of time that mice remained balanced on the rod after intraperitoneal (i.p.) and oral (p.o.) treatment with GL-IV-03 and MP-IV-010 is summarized in FIG. 7B-7C. […] The effect was similar to non-steroidal anti-inflammatory drug ketoprofen at 30 mg/kg. Sedation and inhibition of sensorimotor coordination can influence licking and biting pain behaviors, prompting rotarod studies for GL-IV-03 and MP-IV-010. […] In contrast to diazepam, a benzodiazepine with high affinity for the α1β2/3γ2 and other GABAAR subtypes, was sedating at 5 mg/kg.
Formalin test. […]

[10] abbreviates: Percent inhibition at 10,000 nM.
Where [11] appears, read: 10 μM, 24 hours, 1 μM GABA, LPS/IFNγ.

T1 sequence (P41145 whole entry): as the sequence (P41145 whole entry) above
T3 sequence (P35372 whole entry, species assumed): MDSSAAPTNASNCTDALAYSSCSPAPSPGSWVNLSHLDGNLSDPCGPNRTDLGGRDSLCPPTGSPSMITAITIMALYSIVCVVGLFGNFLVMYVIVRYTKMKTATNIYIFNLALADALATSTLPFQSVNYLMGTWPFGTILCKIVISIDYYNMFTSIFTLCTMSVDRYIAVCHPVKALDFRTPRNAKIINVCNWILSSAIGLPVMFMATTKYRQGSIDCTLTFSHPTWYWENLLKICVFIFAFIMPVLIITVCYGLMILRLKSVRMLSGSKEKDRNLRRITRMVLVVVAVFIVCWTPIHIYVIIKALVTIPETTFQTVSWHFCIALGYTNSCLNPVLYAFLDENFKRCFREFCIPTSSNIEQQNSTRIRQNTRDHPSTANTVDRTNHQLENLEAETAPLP

For the molecule `NCCCC(=O)O` [GABA], the maximum current response in data set [1] worked out at 1245 pA; in [3] it was 1514 pA. Further, the “NO production of activated microglia (in words)” value in the data set on Mouse microglia [2] (dexamethasone 100 nM, GABA 1 μM, MP-IV-010 50 μM, GL-II-33 in the library screen) was “no effect”.

As for `C#Cc1ccc2c(c1)C(c1ccccc1F)=NC(C)c1c(C(=O)OC(C)(C)C)ncn1-2` (stereo not drawn) [GL-I-30], the KOR % on KOR (κ opioid receptor) (setting [10]) is given as 95%. Further, the inhibitory constant (Ki) was determined as 27 nM at KOR (κ opioid receptor) (concentration-dependent, read-out: KOR (Ki)); 1850 nM on MOR (μ opioid receptor) (read-out: MOR affinity Ki); 177 nM in data set [4]. The DOR % on DOR (δ opioid receptor) is recorded as 7%. For the same molecule, on MOR (μ opioid receptor) (setting [10]), the MOR % is listed as 54%. Also, the “KOR agonism (in words)” value on human KOR is reported as “full KOR agonism”; at human KOR (listed as GL-1-30) it was “full KOR agonist”. Further, on human KOR (BRET, HEK293T cells), the “efficacy in comparison to full agonist salvinorin A” value is on record as 100%. Also, the EC50 on human KOR (BRET, HEK293T cells, read-out: EC50, recruitment of GαoA protein to KOR) came to 32.3 nM. Besides, the BZR % in [4] (setting [10]) worked out at 96%.

Regarding `C#Cc1ccc2c(c1)C(c1ccccc1F)=N[C@H](C)c1c(-c3nc(CC)no3)ncn1-2` [MP-IV-005, (R)-3-ethyl-5-(8-ethynyl-6-(2-fluorophenyl)-4-methyl-4H-benzo[f]imidazo[1,5-a][1,4]diazepin-3-yl)-1,2,4-oxadiazole], in the data set on RAW macrophages [5], the “Cell viability (%) RAW macrophages 50 μM” value turned out to be 86 ± 14%. In addition, the “Cell viability (%) HEPG2 120 μM” value in the data set with HEPG2 came to 98 ± 8%. In addition, in the data set on Mouse microglia [2] (Mus musculus, Microglia, 24 h), the inhibition at 10 µM amounted to 45 ± 3% and the inhibition at 50 µM is 89 ± 17%. The “Cell viability (%) Mouse microglia 50 μM” value in the data set with Mouse microglia [6] was 86 ± 13%. In the data set on RAW macrophages [7] (Mus musculus, Macrophage, 24 h), this molecule had an inhibition at 10 µM of 5 ± 3% and an inhibition at 50 µM of 59 ± 9%. In the data set on HEK293, the “Cell viability (%) HEK293 120 μM” value is given as 68 ± 14%.

In the case of `C#Cc1ccc2c(c1)C(c1ccccc1)=NCC(=O)N2C` [QH-II-66], the “Cell viability (%) RAW macrophages 50 μM” value in the data set with RAW macrophages [5] is 100 ± 12%. Also, the “Cell viability (%) HEPG2 120 μM” value in the data set on HEPG2 came out at 100 ± 4%. For the same molecule, the “Inhibition of NO production (%) Mouse microglia 10 μM” value in the data set on Mouse microglia [2] (setting [11]) worked out at 54 ± 9%. Also, the “Cell viability (%) Mouse microglia 50 μM” value in the data set on Mouse microglia [6] was 97 ± 11%. For the same molecule, the “Inhibition of NO production (%) RAW macrophages 10 μM” value with RAW macrophages [7] (setting [11]) came out at 17 ± 6%. Further, the “Cell viability (%) HEK293 120 μM” value with HEK293 is 81 ± 2%.

As to `CN1C(=O)CN=C(c2ccccc2)c2cc(Cl)ccc21` [diazepam, reference compound], the “sedation (rotarod)” value with Swiss Webster mice [8] was “sedating”.

Regarding `CC(C(=O)O)c1cccc(C(=O)c2ccccc2)c1` (stereo not drawn) [ketoprofen, reference compound], in the data set on Swiss Webster mice [9], the “antinociceptive effect, formalin test (phase 1 and 2)” value is “similar”.
